Read-outs that look alike come from different tables or passages of the source.
How the values were obtained:
[1] = Ferric reducing antioxidant power (FRAP) assay; conditions: mean ± standard error of three experiments;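 further: expressed as µM Fe2+ equivalents from an FeSO4·7H2O standard curve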
Summary of the method: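 Compounds at 10 and 100 µM were mixed with FRAP reagent (300 mM acetate buffer pH 3.6, TPTZ in HCl, FeCl3, 10:1:1) and incubated 60 min at 37 °C. Fe^2+-TPTZ formation read at 593 nm against a blank. Values derived from an Fe2SO4·7H2O standard curve, three independent experiments.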

[2] = biological target: T1, purified human BChE (Homo sapiens, UniProt P06276); assay: biochemical; type: biochemical
T1 construct: possibly also a gift of Dr Florian Nachon (the sentence is ambiguous)
Summary of the method: (§1)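 Modified Ellman assay with acetylthiocholine and DTNB in 0.1 M sodium phosphate pH 7.4 (enzymes diluted with 0.1% BSA), ≤0.2% DMSO, 25 °C. At least three inhibitor concentrations per substrate level; Ki,app from Hunter–Downs equation, Ki from y-intercept and inhibition type from Ki,app vs [S].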

[3] = biological target: T2, recombinant human AChE (Homo sapiens, UniProt P22303); assay: biochemical; type: biochemical; conditions: for IS: IS = Ki(BChE)/Ki(AChE), IS > 1 selective to AChE
T2 construct: gift of Dr Florian Nachon (Armed Forces Biomedical Research Institute, Brétigny-sur-Orge, France)
Summary of the method: as §1

[4] = Reverse-phase thin-layer chromatographic lipophilicity (RF, RM0); type: physicochemical; conditions: for RM0: intercept of RM = RM0 + bC; for b: slope of RM = RM0 + bC; for RF, Methanol/Water/Hydrochloric acid (conc.), mobile phase I: I = 90%MeOH/5%H2O/5%HCl; for RF, Dioxane/Water/Hydrochloric acid (conc.), mobile phase II: II = 80%Dioxane/15%H2O/5%HCl; for RF, Methanol/Water/Hydrochloric acid (conc.), mobile phase II: II = 85%MeOH/10%H2O/5%HCl; for RF, Acetone/Water/Hydrochloric acid (conc.), mobile phase III: III = 70%AC/25%H2O/5%HCl; for RF, Dioxane/Water/Hydrochloric acid (conc.), mobile phase III: III = 70%Dioxane/25%H2O/5%HCl; for RF, Methanol/Water/Hydrochloric acid (conc.), mobile phase III: III = 80%MeOH/15%H2O/5%HCl; for RF, Dioxane/Water/Hydrochloric acid (conc.), mobile phase IV: IV = 60%Dioxane/35%H2O/5%HCl; for RF, Acetone/Water/Hydrochloric acid (conc.), mobile phase IV: IV = 65%AC/30%H2O/5%HCl; for RF, Methanol/Water/Hydrochloric acid (conc.), mobile phase IV: IV = 75%MeOH/20%H2O/5%HCl; for RF, Acetone/Water/Hydrochloric acid (conc.), mobile phase IX: IX = 40%AC/55%H2O/5%HCl; for RF, Methanol/Water/Hydrochloric acid (conc.), mobile phase IX: IX = 50%MeOH/45%H2O/5%HCl; for RF, Dioxane/Water/Hydrochloric acid (conc.), mobile phase V: V = 50%Dioxane/45%H2O/5%HCl; for RF, Acetone/Water/Hydrochloric acid (conc.), mobile phase V: V = 60%AC/35%H2O/5%HCl; for RF, Methanol/Water/Hydrochloric acid (conc.), mobile phase V: V = 70%MeOH/25%H2O/5%HCl; for RF, Dioxane/Water/Hydrochloric acid (conc.), mobile phase VI: VI = 40%Dioxane/55%H2O/5%HCl; for RF, Acetone/Water/Hydrochloric acid (conc.), mobile phase VI: VI = 55%AC/40%H2O/5%HCl; for RF, Methanol/Water/Hydrochloric acid (conc.), mobile phase VI: VI = 65%MeOH/30%H2O/5%HCl; for RF, Acetone/Water/Hydrochloric acid (conc.), mobile phase VII: VII = 50%AC/45%H2O/5%HCl; for RF, Methanol/Water/Hydrochloric acid (conc.), mobile phase VII: VII = 60%MeOH/35%H2O/5%HCl; for RF, Acetone/Water/Hydrochloric acid (conc.), mobile phase VIII: VIII = 45%AC/50%H2O/5%HCl; for RF, Methanol/Water/Hydrochloric acid (conc.), mobile phase VIII: VIII = 55%MeOH/40%H2O/5%HCl
Summary of the method: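 Reverse-phase TLC using mobile phases of methanol, acetone or dioxane with water and hydrochloric acid. Methanol varied in 10% steps; development distance 4.5 cm, ambient temperature (22±2 °C). RF measured and RM0 derived from retention.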

[5] = ± standard error, 25 °C, ATCh substrate, read-out: Ki BChE
[6] = ± standard error, 25 °C, ATCh substrate, read-out: Ki AChE
[7] = Acetone/Water/Hydrochloric acid (conc.)
[8] = Dioxane/Water/Hydrochloric acid (conc.)
[9] = Methanol/Water/Hydrochloric acid (conc.)
[10] = log (Ki/µM AChE), read-out: Y Measured 1 log(ki)Ache (converted)

T2 sequence (P22303 32-614): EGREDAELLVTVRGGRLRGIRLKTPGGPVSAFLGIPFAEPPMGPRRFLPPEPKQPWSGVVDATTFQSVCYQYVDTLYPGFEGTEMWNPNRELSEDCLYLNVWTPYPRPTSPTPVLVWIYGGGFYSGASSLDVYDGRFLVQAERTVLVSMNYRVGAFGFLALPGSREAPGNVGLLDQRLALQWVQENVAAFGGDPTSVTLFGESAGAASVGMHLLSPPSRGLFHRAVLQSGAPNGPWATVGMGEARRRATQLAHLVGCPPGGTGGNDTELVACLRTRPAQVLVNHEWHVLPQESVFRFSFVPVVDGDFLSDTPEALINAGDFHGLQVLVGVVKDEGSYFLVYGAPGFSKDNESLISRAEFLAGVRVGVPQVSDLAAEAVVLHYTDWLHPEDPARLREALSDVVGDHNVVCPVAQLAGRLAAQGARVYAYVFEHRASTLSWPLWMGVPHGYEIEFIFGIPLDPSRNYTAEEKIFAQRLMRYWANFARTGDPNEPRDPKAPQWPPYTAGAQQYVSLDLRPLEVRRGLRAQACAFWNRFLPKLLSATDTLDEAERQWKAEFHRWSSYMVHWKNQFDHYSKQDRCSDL
T1 sequence (P06276 29-602): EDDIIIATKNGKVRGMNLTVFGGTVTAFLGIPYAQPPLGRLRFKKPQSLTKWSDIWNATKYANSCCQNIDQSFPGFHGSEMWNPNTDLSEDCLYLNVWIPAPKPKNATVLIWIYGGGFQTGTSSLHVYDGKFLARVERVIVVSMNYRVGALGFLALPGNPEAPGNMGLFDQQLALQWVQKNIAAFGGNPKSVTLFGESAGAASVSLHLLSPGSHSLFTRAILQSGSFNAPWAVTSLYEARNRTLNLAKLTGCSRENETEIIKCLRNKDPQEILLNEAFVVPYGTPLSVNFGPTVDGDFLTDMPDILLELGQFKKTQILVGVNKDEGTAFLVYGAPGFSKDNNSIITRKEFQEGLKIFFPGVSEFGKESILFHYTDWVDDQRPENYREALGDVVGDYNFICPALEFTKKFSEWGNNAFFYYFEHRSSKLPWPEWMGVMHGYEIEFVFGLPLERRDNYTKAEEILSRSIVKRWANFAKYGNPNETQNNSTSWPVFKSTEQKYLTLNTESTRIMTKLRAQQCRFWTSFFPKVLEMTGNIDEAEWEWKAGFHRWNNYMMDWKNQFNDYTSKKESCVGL

Clc1ccc2c(NCCCCCN(CCC34CC5CC(CC(C5)C3)C4)CCC34CC5CC(CC(C5)C3)C4)ccnc2c1 [Compound 11]
FRAP ([1]; 10 µM compound): 5.3 ± 1.4 µM
FRAP ([1]; 100 µM compound): 23 ± 4 µM
Ki [2, 5]: 0.82 ± 0.04 µM
IS [3]: 2.5
Ki [3, 6]: 0.33 ± 0.01 µM
RM0 [4, 7]: 3.759
b [4, 7]: 4.955
RM0 [4, 8]: 2.01
b [4, 8]: 2.862
RM0 [4, 9]: 5.504
b [4, 9]: 5.94
RF, Acetone/Water/Hydrochloric acid (conc.), mobile phase I ([4]; RP-18 silica, I = 80%AC/15%H2O/5%HCl): 0.58
RF, Dioxane/Water/Hydrochloric acid (conc.), mobile phase I ([4]; RP-18 silica, I = 90%Dioxane/5%H2O/5%HCl): 0.74
RF, Methanol/Water/Hydrochloric acid (conc.), mobile phase I ([4]; RP-18 silica): 0.43
RF, Acetone/Water/Hydrochloric acid (conc.), mobile phase II ([4]; RP-18 silica, II = 75%AC/20%H2O/5%HCl): 0.52
RF, Dioxane/Water/Hydrochloric acid (conc.), mobile phase II ([4]; RP-18 silica): 0.64
RF, Methanol/Water/Hydrochloric acid (conc.), mobile phase II ([4]; RP-18 silica): 0.31
RF, Acetone/Water/Hydrochloric acid (conc.), mobile phase III ([4]; RP-18 silica): 0.32
RF, Dioxane/Water/Hydrochloric acid (conc.), mobile phase III ([4]; RP-18 silica): 0.58
RF, Methanol/Water/Hydrochloric acid (conc.), mobile phase III ([4]; RP-18 silica): 0.09
RF, Dioxane/Water/Hydrochloric acid (conc.), mobile phase IV ([4]; RP-18 silica): 0.47
RF, Acetone/Water/Hydrochloric acid (conc.), mobile phase IV ([4]; RP-18 silica): 0.27
RF, Methanol/Water/Hydrochloric acid (conc.), mobile phase IV ([4]; RP-18 silica): 0.09
RF, Acetone/Water/Hydrochloric acid (conc.), mobile phase IX ([4]; RP-18 silica): 0
RF, Methanol/Water/Hydrochloric acid (conc.), mobile phase IX ([4]; RP-18 silica): 0
RF, Dioxane/Water/Hydrochloric acid (conc.), mobile phase V ([4]; RP-18 silica): 0.13
RF, Acetone/Water/Hydrochloric acid (conc.), mobile phase V ([4]; RP-18 silica): 0.12
RF, Methanol/Water/Hydrochloric acid (conc.), mobile phase V ([4]; RP-18 silica): 0.05
RF, Dioxane/Water/Hydrochloric acid (conc.), mobile phase VI ([4]; RP-18 silica): 0
RF, Acetone/Water/Hydrochloric acid (conc.), mobile phase VI ([4]; RP-18 silica): 0.08
RF, Methanol/Water/Hydrochloric acid (conc.), mobile phase VI ([4]; RP-18 silica): 0.01
RF, Acetone/Water/Hydrochloric acid (conc.), mobile phase VII ([4]; RP-18 silica): 0
RF, Methanol/Water/Hydrochloric acid (conc.), mobile phase VII ([4]; RP-18 silica): 0
RF, Acetone/Water/Hydrochloric acid (conc.), mobile phase VIII ([4]; RP-18 silica): 0
RF, Methanol/Water/Hydrochloric acid (conc.), mobile phase VIII ([4]; RP-18 silica): 0

CC(CCNCC12CC3CC(CC(C3)C1)C2)Nc1ccnc2cc(Cl)ccc12 (centres unmarked) [Compound 12]
FRAP ([1]; 10 µM compound): 24.2 ± 0.0 µM
FRAP ([1]; 100 µM compound): 37 ± 7 µM
Ki ([2]; Ki BChE, ± standard error, 25 °C, ATCh substrate): 1.2 ± 0.1 µM
IS [3]: 2.1
Ki [3, 10]: 0.56 µM
Ki [3, 6]: 0.56 ± 0.02 µM
RM0 [4, 7]: 1.835
b [4, 7]: 3.007
RM0 [4, 8]: 0.75
b [4, 8]: 1.647
RM0 [4, 9]: 2.4121
b [4, 9]: 3.174
RF, Methanol/Water/Hydrochloric acid (conc.), mobile phase I ([4]; RP-18 silica): 0.71
RF, Dioxane/Water/Hydrochloric acid (conc.), mobile phase II ([4]; RP-18 silica): 0.75
RF, Methanol/Water/Hydrochloric acid (conc.), mobile phase II ([4]; RP-18 silica): 0.66
RF, Acetone/Water/Hydrochloric acid (conc.), mobile phase III ([4]; RP-18 silica): 0.62
RF, Dioxane/Water/Hydrochloric acid (conc.), mobile phase III ([4]; RP-18 silica): 0.72
RF, Methanol/Water/Hydrochloric acid (conc.), mobile phase III ([4]; RP-18 silica): 0.53
RF, Dioxane/Water/Hydrochloric acid (conc.), mobile phase IV ([4]; RP-18 silica): 0.72
RF, Acetone/Water/Hydrochloric acid (conc.), mobile phase IV ([4]; RP-18 silica): 0.58
RF, Methanol/Water/Hydrochloric acid (conc.), mobile phase IV ([4]; RP-18 silica): 0.5
RF, Acetone/Water/Hydrochloric acid (conc.), mobile phase IX ([4]; RP-18 silica): 0.15
RF, Methanol/Water/Hydrochloric acid (conc.), mobile phase IX ([4]; RP-18 silica): 0.1
RF, Dioxane/Water/Hydrochloric acid (conc.), mobile phase V ([4]; RP-18 silica): 0.54
RF, Acetone/Water/Hydrochloric acid (conc.), mobile phase V ([4]; RP-18 silica): 0.48
RF, Methanol/Water/Hydrochloric acid (conc.), mobile phase V ([4]; RP-18 silica): 0.44
RF, Dioxane/Water/Hydrochloric acid (conc.), mobile phase VI ([4]; RP-18 silica): 0.4
RF, Acetone/Water/Hydrochloric acid (conc.), mobile phase VI ([4]; RP-18 silica): 0.41
RF, Methanol/Water/Hydrochloric acid (conc.), mobile phase VI ([4]; RP-18 silica): 0.36
RF, Acetone/Water/Hydrochloric acid (conc.), mobile phase VII ([4]; RP-18 silica): 0.34
RF, Methanol/Water/Hydrochloric acid (conc.), mobile phase VII ([4]; RP-18 silica): 0.25
RF, Acetone/Water/Hydrochloric acid (conc.), mobile phase VIII ([4]; RP-18 silica): 0.29
RF, Methanol/Water/Hydrochloric acid (conc.), mobile phase VIII ([4]; RP-18 silica): 0.18

CC(CCNCC12CC3CC(CC(C3)C1)C2)Nc1ccnc2cc(C(F)(F)F)ccc12 (centres unmarked) [Compound 13]
FRAP ([1]; 10 µM compound): 19 ± 7 µM
FRAP ([1]; 100 µM compound): 64 ± 5 µM
Ki ([2]; logarithm of Ki in µM, BChE, dependent variable of the QSAR model, read-out: Y Measured 2 log(ki)Bche, log (Ki/µM BChE) (converted)): 1.4 µM
Ki [2, 5]: 1.8 ± 0.3 µM
Ki [3, 10]: 0.91 µM
Ki [3, 6]: 0.91 ± 0.05 µM
RM0 [4, 7]: 2.073
b [4, 7]: 3.206
RM0 [4, 8]: 0.9361
b [4, 8]: 1.847
RM0 [4, 9]: 2.626
b [4, 9]: 3.42
RF, Methanol/Water/Hydrochloric acid (conc.), mobile phase I ([4]; RP-18 silica): 0.72
RF, Dioxane/Water/Hydrochloric acid (conc.), mobile phase II ([4]; RP-18 silica): 0.73
RF, Methanol/Water/Hydrochloric acid (conc.), mobile phase II ([4]; RP-18 silica): 0.66
RF, Acetone/Water/Hydrochloric acid (conc.), mobile phase III ([4]; RP-18 silica): 0.56
RF, Dioxane/Water/Hydrochloric acid (conc.), mobile phase III ([4]; RP-18 silica): 0.7
RF, Methanol/Water/Hydrochloric acid (conc.), mobile phase III ([4]; RP-18 silica): 0.5
RF, Dioxane/Water/Hydrochloric acid (conc.), mobile phase IV ([4]; RP-18 silica): 0.7
RF, Acetone/Water/Hydrochloric acid (conc.), mobile phase IV ([4]; RP-18 silica): 0.52
RF, Methanol/Water/Hydrochloric acid (conc.), mobile phase IV ([4]; RP-18 silica): 0.49
RF, Acetone/Water/Hydrochloric acid (conc.), mobile phase IX ([4]; RP-18 silica): 0.1
RF, Methanol/Water/Hydrochloric acid (conc.), mobile phase IX ([4]; RP-18 silica): 0.09
RF, Dioxane/Water/Hydrochloric acid (conc.), mobile phase V ([4]; RP-18 silica): 0.5
RF, Acetone/Water/Hydrochloric acid (conc.), mobile phase V ([4]; RP-18 silica): 0.4
RF, Methanol/Water/Hydrochloric acid (conc.), mobile phase V ([4]; RP-18 silica): 0.42
RF, Dioxane/Water/Hydrochloric acid (conc.), mobile phase VI ([4]; RP-18 silica): 0.33
RF, Acetone/Water/Hydrochloric acid (conc.), mobile phase VI ([4]; RP-18 silica): 0.34
RF, Methanol/Water/Hydrochloric acid (conc.), mobile phase VI ([4]; RP-18 silica): 0.34
RF, Acetone/Water/Hydrochloric acid (conc.), mobile phase VII ([4]; RP-18 silica): 0.3
RF, Methanol/Water/Hydrochloric acid (conc.), mobile phase VII ([4]; RP-18 silica): 0.22
RF, Acetone/Water/Hydrochloric acid (conc.), mobile phase VIII ([4]; RP-18 silica): 0.23
RF, Methanol/Water/Hydrochloric acid (conc.), mobile phase VIII ([4]; RP-18 silica): 0.14

Source: paper PMC9229919, “4-Aminoquinoline-Based Adamantanes as Potential Anticholinesterase Agents in Symptomatic Treatment of Alzheimer’s Disease” (Pharmaceutics, 2022)
